# pIC50: −log10 of the molar value.
# Assays:
# T98g glioblastoma cells = test: BrdU incorporation assay (DNA synthesis); format: cell-based, human; details: synchronized T98 g, 17 h + 2 h BrdU; read-out: IC50 BrdU incorporation (DNA synthesis inhibition)
# Protocol: To confirm the G1 arrest of the cell cycle, we analyzed the DNA synthesis by an BrdU incorporation assay. Serial dilutions of the compounds N4-13-10C, N5-13-10C, N10-13-10C, N13-13-10C, etoposide or olomucine were assayed on synchronized T98 g cells as described in FIG. 7. A. Arrested cells were induced to cell cycle re-entry by re-addition of serum alone or with test compounds for 17 h, followed by 2 h in combination with 10 μM BrdU.
# BrdU assay. T98g glioblastoma cells at 5000 cells/well in microtiter plates were arrested in G1-phase for 72 h by serum deprivation in MCDB 105 medium. By serum (10%) readdition, cells were treated with serial dilutions of the compounds for 17 h, and followed in combination 10 μM BrdU for […]. BrdU incorporation, i.e. DNA synthesis, was quantified with Cell Proliferation ELISA system, vs. 2 (AmershamPharmacia biotech) as described by the manufacturer.
# (§1) FIG. 7. […] (A) T98 g cells were synchronized and reinitiated for 19 h with FCS alone or in combination with N10-13-10C (100 μM), N13-13-10C (100 μM), Olomucine (100 μM), etoposide (5 μM) or Taxol (30 nM). Cell cycle profile was assessed by propidium iodide DNA staining and analyzed by flow cytometry. The fraction of cells with G1, S, G2/M DNA content are shown as % of total cell population. (B. and C.) Synchronized T98 g cells were reinitiated with FCS alone or in combination with serial dilutions of N4-13-10C, N5-13-10C, N10-13-10C, N13-13-10C, Olomucine or etoposide for 19 h and labeled with BrdU during the last 2 h. BrdU incorporation was assessed by ELISA using anti-BrdU antibodies. An arbitrary value of 100% was assigned to the densiometric rate of DNA synthesis by untreated cultures and all other values are depicted relative to that reference. The values are means of three (n=3) replicates.
# T98 g cells = test: Cell cycle DNA analysis in synchronized cells; format: cell-based, human; details: 19 h after serum re-addition, 100 μM
# Protocol: Experimentally this finding was substantiated analysing the compounds in a cellular model with synchronized cells. T98 g cells were arrested in G1 phase (82%) by serum starvation in MCDB 105 medium after 72 h. Upon 10% serum re-addition, cells were allowed to re-enter into the cell cycle. More than 50% of the cells were in the S-phase, and only 20% remained in G1 after 19 h of FCS introduction. Addition of N10-13-10C or N13-13-10C to the cultures at the moment of serum addition restrained S-phase entry (FIG. 7. A). Around 40% of the cells were retained in G1. In conclusions both N10-13-10C and N13-13-10C were able to induce a G1 arrest either in asynchronous or in synchronized cell cultures, as determined by cell cycle DNA analysis. In comparison, Olomucine which is a cdk2 inhibitor, retained 80% of the cells in G1. The topoisomerase II inhibitor etoposide treated cells were arrested in S phase of the cell cycle (85% of the cell population).
# DNA analysis. Floating and adherent cells treated with the compounds were collected by trypsinization and washed twice with PBS. The cells were permeabilized overnight at −20° C. with ice-cold ethanol 70%. The cells were washed in PBS, adjusted at 0.5×10^6 cells/ml and incubated with 20 μg/ml Propidium Iodide and 2 μl/ml RNase DNase-free for 30 min at 30° C. Cells were maintained overnight at 4° C. and then analysed by flow cytometry. Flow cytometric experiments were carried out using an Epics XL flow cytometer (Coulter Corporation, Hialeah, Fla.). The instrumet was set up with the standard configuration: excitation of the sample was done using an standard 488 nm air-cooled argon-ion laser at 15 mW power. Forward scatter (FSC), side scatter (SSC) and red (620 nm) fluorescence for PI were adquired. Optical alignement was based on optimized signal from […] fluorescent beads (Immunocheck, Epics Division). Time was used as a control of the stability of the instrument. Red fluorescence was projected on a 1024 monoparametrical histogram. Aggregates were excluded gating single cells by their area vs. peak fluorescence signal. DNA analysis (Ploidy analysis) on single fluorescence histograms was done using Multicycle software (Phoenix Flow Systems, San Diego, Calif.).
# as §1
# [1] = tested on: HT29 human colon adenocarcinoma cells; test: Cellular proliferation assay (MTT); format: cell-based; details: for pIC50: HT29, MTT assay after 72 h, read-out: IC50 proliferation inhibition; for Anti-proliferative effect in combination with serial dilutions of Taxol versus Taxol alone: HT29, compound at its IC50, 72 h; for Effect of Taxol on the compound's proliferation inhibition: HT29, with low dose of Taxol (11 nM), 72 h
# From the text: For screening of the peptoid library containing 10.648 compounds, controlled mixtures of trimers of N-alkylglycine oligomer molecules (peptoid) have been used and constructed under […] positional scanning formats. Chemical diversity was introduced through the substitution of position R1, R2 and R3 by 22 different primary amines. 66 controlled mixtures divided into three different subgroups depending on the R1, R2, R3 defined position. The library was screened on a cellular proliferation assay with HT29 human colon adenocarcinoma cells. The compounds were tested either alone or together with a low dose of Taxol (11 nM). After 72 h in culture, cellular viability was measured with the MTT assay.
# Cellular Assays. Combinatorial libraries were screened on a cellular proliferation assay with HT29 human colon adenocarcinoma cells. The compounds were tested either alone or together with low doses of Taxol (nM). After 3 days in culture, cellular viability was measured with an MTT assay (3-4,5-Dimethyl-2-thiazolyl-2,5-diphenyl-2H-tetrazolium bromide). MTT was added at a final concentration of 1 mg/ml in the cell cultures, and after 4 h incubation at 37° C. cell lysis was performed with 15% SDS/DMF (v/v). Spectrophotometric measurement of MTT-formazan at 570 nm and a reference filter at 630 nm allows quantitation of cellular viability. Proliferation inhibition due to the compounds alone was compared to inhibition observed in Taxol plus compound treated cultures.
# FIG. 1. Compounds N10-13-10C, N13-13-10C, N4-13-10C and N5-13-10C inhibit HT29 proliferation. Taxol interferes the effect of N10-13-10C and N13-13-10C. (A, B) HT29 cells were grown with peptoid at several concentrations with or without Taxol (11 nM). MTT assay was performed after 72 h of treatment. Proliferation inhibition is shown for N4-13-10C and N13-13-10C (A.), N5-13-10C and N10-13-10C (B.) compared to proliferation of control cells. IC50 value is specified for each peptoid. N10-13-10C and N13-13-10C were purified peptoids by HPLC, corresponding to the major and active fraction. N4-13-10C and N5-13-10C peptoids were not purified by HPLC. […] Proliferation was evaluated by MTT assay after 72 h of treatment. An arbitrary value of 100% was assigned to the densiometric rate of untreated cultures and all other values are depicted relative to that reference. The values are means of six (n=6) replicates.
SMILES,pIC50 (T98g glioblastoma cells),Cells retained in G1 (T98 g cells),pIC50 [1],Anti-proliferative effect in combination with serial dilutions of Taxol versus Taxol alone [1],Effect of Taxol on the compound's proliferation inhibition [1]
COc1ccc(CCN(CC(=O)N(CCc2ccccc2)CC(N)=O)C(=O)CNCCc2ccccc2)cc1 [N10-13-10C],4.00,Around 40%,4.40,potentated anti-proliferative effect,Taxol prevented the compound's effect
COc1ccc(CCNCC(=O)N(CCc2ccc(OC)cc2)CC(=O)N(CCc2ccccc2)CC(N)=O)cc1 [N13-13-10C],3.82,Around 40%,4.46,potentated anti-proliferative effect,Taxol prevented the compound's effect

# From patent US20060229255A1, “Identification of n-alkylglycine trimers for induction of apoptosis” (priority 2003, published 2006)
